Results reported in patent publication US10336762B2 (priority 2017, dated 2019).
Where two headings read alike, the source gives them in different places.

Legend:
[1] = system: TNFα; experiment: cells; type: cell-based, human; details: LPS-stimulated human monocytes, read-out: EC50 TNF
[2] = target: IRAK4 enzyme (Homo sapiens (Human), UniProt Q9NWZ3); experiment: biochemical; type: biochemical; details: IRAK4 enzyme, 500 μM ATP
[3] = Homo sapiens, Monocyte, TNFα content
[4] = Homo sapiens, Monocyte, TNFα by TR-FRET

IRAK4 enzyme, sequence (Q9NWZ3 whole entry): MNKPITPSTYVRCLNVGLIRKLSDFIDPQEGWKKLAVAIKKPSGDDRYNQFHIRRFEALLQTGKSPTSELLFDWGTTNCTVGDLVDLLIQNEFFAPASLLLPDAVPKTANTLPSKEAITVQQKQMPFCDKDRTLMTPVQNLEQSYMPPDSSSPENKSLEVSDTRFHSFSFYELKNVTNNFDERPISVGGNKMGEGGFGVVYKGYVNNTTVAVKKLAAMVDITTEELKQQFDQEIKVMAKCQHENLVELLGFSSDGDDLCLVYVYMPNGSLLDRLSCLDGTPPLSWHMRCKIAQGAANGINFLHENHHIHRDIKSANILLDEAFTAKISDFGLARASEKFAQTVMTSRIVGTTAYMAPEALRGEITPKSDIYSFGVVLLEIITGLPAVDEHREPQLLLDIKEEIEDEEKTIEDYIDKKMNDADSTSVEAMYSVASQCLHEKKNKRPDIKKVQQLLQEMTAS

Row | SMILES | EC50 [1, 3] | IC50 ([2]; TR-FRET) | EC50 [1, 4] | IC50 ([2]; TR-FRET (HTRF)) | EC50 ([1]; TNFα by TR-FRET)
1 | CC1(C(=O)N2CCC(Nc3cc(-c4ccc5cc(C#N)cnn45)ncc3C(=O)NC[C@@H](F)C(C)(C)O)CC2)COC1 [Example 325, (R)-6-(3-cyanopyrrolo[1,2-b]pyridazin-7-yl)-N-(2-fluoro-3-hydroxy-3-methylbutyl)-4-((1-(3-methyloxetane-3-carbonyl)piperidin-4-yl)amino)nicotinamide] | 228 nM | 3 nM |  |  | 
2 | CC(C)Nc1cc(-c2ccc3cc(C#N)cnn23)ncc1C(=O)NC1CCC(NC(=O)C(C)(C)O)CC1 (stereo not shown) [Example 135, 6-(3-cyanopyrrolo[1,2-b]pyridazin-7-yl)-N-((1r,4r)-4-(2-hydroxy-2-methylpropanamido)cyclo-hexyl)-4-(isopropylamino) nicotinamide] | 130 nM | 2 nM |  |  | 
3 | CC(C)(O)[C@H](F)CNC(=O)c1cnc(-c2ccc3cc(C#N)cnn23)cc1Nc1cnc(N2CCNCC2)nc1 [Example 921, (R)-6-(3-cyanopyrrolo[1,2-b]pyridazin-7-yl)-N-(2-fluoro-3-hydroxy-3-methyl-butyl)-4-((2-(piperazin-1-yl)pyrimidin-5-yl)amino) nicotinamide] |  | < 1 nM | 45 nM |  | 
4 | CC(C)(O)[C@H](F)CNC(=O)c1cnc(-c2ccc3cc(C#N)cnn23)cc1Nc1ccc(CNCC(F)(F)F)cc1 [Example 198, (R)-6-(3-cyanopyrrolo[1,2-b]pyridazin-7-yl)-N-(2-fluoro-3-hydroxy-3-methylbutyl)-4-((4-(((2,2,2-trifluoroethyl)amino)methyl)phenyl)amino)nicotinamide] | 16 nM | < 1 nM |  |  | 
5 | CC(C)(O)[C@H](F)CNC(=O)c1cnc(-c2ccc3cc(C#N)cnn23)cc1NC1CCC(C(=O)N2CC(F)(F)C2)CC1 (stereo partly drawn) [Example 174, 6-(3-cyanopyrrolo[1,2-b]pyridazin-7-yl)-4-(((1r,4R)-4-(3,3-difluoroazetidine-1-carbonyl)cyclohexyl)amino)-N-((R)-2-fluoro-3-hydroxy-3-methylbutyl)nicotinamide] | 92 nM | 1 nM |  |  | 
6 | N#Cc1cnn2c(-c3cc(NC45CCC(O)(CC4)CC5)c(C(=O)NC45CCC(O)(CC4)CC5)cn3)ccc2c1 [Example 402, 6-(3-cyanopyrrolo[1,2-b]pyridazin-7-yl)-N-(4-hydroxybicyclo[2.2.2]octan-1-yl)-4-((4-hydroxy-bicyclo[2.2.2]octan-1-yl)amino)nicotinamide] | 77 nM |  |  | 2 nM | 
7 | CC(C)Nc1cc(-c2ccc3cccnn23)ncc1C(=O)NC[C@@H](F)C(C)(C)O [Example 817, (R)-N-(2-fluoro-3-hydroxy-3-methylbutyl)-4-(isopropyl-amino)-6-(pyrrolo[1,2-b]pyridazin-7-yl)nicotinamide] |  | 6 nM | 165 nM |  | 
8 | CC(C)(O)[C@H](F)CNC(=O)c1cnc(-c2ccc3cc(C#N)cnn23)cc1NC1C2CC1CN(S(C)(=O)=O)C2 (stereo partly drawn) [Example 30, 6-(3-cyanopyrrolo[1,2-b]pyridazin-7-yl)-N-((R)-2-fluoro-3-hydroxy-3-methyl-butyl)-4-((3-(methylsulfonyl)-3-azabicyclo[3.1.1]heptan-6-yl)amino)nicotinamide] | 732 nM | 3 nM |  |  | 
9 | COc1ccc(Nc2cc(-c3ccc4cc(C#N)cnn34)ncc2C(=O)NC[C@@H](F)C(C)(C)O)nc1 [Example 667, (R)-6-(3-cyanopyrrolo[1,2-b]pyridazin-7-yl)-N-(2-fluoro-3-hydroxy-3-methylbutyl)-4-((5-methoxypyridin-2-yl)amino)nicotinamide] | 45 nM |  |  | < 1 nM | 
10 | CC(C)(O)[C@H](F)CNC(=O)c1cnc(-c2ccc3cc(C#N)cnn23)cc1NC1CCS(=O)(=O)CC1 [Example 75, (R)-6-(3-cyanopyrrolo[1,2-b]pyridazin-7-yl)-4-((1,1-dioxidotetrahydro-2H-thiopyran-4-yl)amino)-N-(2-fluoro-3-hydroxy-3-methylbutyl) nicotinamide] | 544 nM | 3 nM |  |  | 
11 | CC(C)(O)[C@H](F)CNC(=O)c1cnc(-c2ccc3cc(C#N)cnn23)cc1N[C@]1(C)C[C@@H](O)C1 [Example 429, 6-(3-cyanopyrrolo[1,2-b]pyridazin-7-yl)-N-((R)-2-fluoro-3-hydroxy-3-methylbutyl)-4-(((1r,3R)-3-hydroxy-1-methylcyclo-butyl)amino)nicotinamide] | 36 nM |  |  | 1 nM | 
12 | CCn1cc(Nc2cc(-c3ccc4cc(C#N)cnn34)ncc2C(=O)NC[C@@H](F)C(C)(C)O)cn1 [Example 56, (R)-6-(3-cyanopyrrolo[1,2-b]pyridazin-7-yl)-4-((1-ethyl-1H-pyrazol-4-yl)amino)-N-(2-fluoro-3-hydroxy-3-methylbutyl)nicotinamide] | 13 nM | < 1 nM |  |  | 
13 | CC(C)(O)[C@H](F)CNC(=O)c1cnc(-c2ccc3cc(C#N)cnn23)cc1NC12CCC(N3CCC3=O)(CC1)CC2 [Example 405, 6-(3-cyanopyrrolo[1,2-b]pyridazin-7-yl)-N-((R)-2-fluoro-3-hydroxy-3-methylbutyl)-4-((4-(2-oxoazetidin-1-yl)bicyclo[2.2.2]octan-1-yl)amino)nicotinamide] | 12 nM |  |  | 1 nM | 
14 | CC(C)(O)[C@H](F)CNC(=O)c1cnc(-c2ccc3cc(C#N)cnn23)cc1N[C@@H]1CCC[C@H](O)C1 [Example 65, 6-(3-cyanopyrrolo[1,2-b]pyridazin-7-yl)-N-((R)-2-fluoro-3-hydroxy-3-methylbutyl)-4-(((1R,3S)-3-hydroxycyclohexyl)amino) nicotinamide] | 149 nM | 2 nM |  |  | 
15 | CC(C)Nc1cc(-c2ccc3cc(C#N)cnn23)ncc1C(=O)N[C@@H]1CCOC1 [Example 37, (R)-6-(3-cyanopyrrolo[1,2-b]pyridazin-7-yl)-4-(isopropylamino)-N-(tetrahydrofuran-3-yl) nicotinamide] | 283 nM | 12 nM |  |  | 
16 | CC(C)(O)[C@H](F)CNC(=O)c1cnc(-c2ccc3cc(C#N)cnn23)cc1Nc1cnn(C2CNCC2(F)F)c1 (single isomer, unassigned) [Example 868] |  | < 1 nM |  |  | 53 nM
17 | CC(C)(O)[C@H](F)CNC(=O)c1cnc(-c2ccc3cc(C#N)cnn23)cc1Nc1ccnc(F)c1 [Example 591, (R)-6-(3-cyanopyrrolo[1,2-b]pyridazin-7-yl)-N-(2-fluoro-3-hydroxy-3-methylbutyl)-4-((2-fluoro-pyridin-4-yl)amino) nicotinamide] | 180 nM |  |  | 2 nM | 
18 | Cc1nsc(Nc2cc(-c3ccc4cc(C#N)cnn34)ncc2C(=O)NC[C@@H](F)C(C)(C)O)n1 [Example 142, (R)-6-(3-cyanopyrrolo[1,2-b]pyridazin-7-yl)-N-(2-fluoro-3-hydroxy-3-methylbutyl)-4-((3-methyl-1,2,4-thiadiazol-5-yl)amino) nicotinamide] | 169 nM | 4 nM |  |  | 
19 | Cc1nc(-c2ccc(Nc3cc(-c4ccc5cc(C#N)cnn45)ncc3C(=O)NC[C@@H](F)C(C)(C)O)cc2)no1 [Example 968, (R)-6-(3-cyanopyrrolo[1,2-b]pyridazin-7-yl)-N-(2-fluoro-3-hydroxy-3-methylbutyl)-4-((4-(5-methyl-1,2,4-oxadiazol-3-yl)phenyl)amino) nicotinamide] |  | 1 nM | 81 nM |  | 
20 | CCOC(=O)CCNC(=O)c1cnc(-c2ccc3cc(C#N)cnn23)cc1NC12CCC(O)(CC1)CC2 [Example 801, ethyl 3-(6-(3-cyano-pyrrolo[1,2-b]pyridazin-7-yl)-4-((4-hydroxy-bicyclo[2.2.2]octan-1-yl)amino)nicotinamido) propanoate] |  | 1 nM | 57 nM |  | 
21 | CC(=O)NC12CC(Nc3cc(-c4ccc5cc(C#N)cnn45)ncc3C(=O)NC3CCC(C(=O)N4CCOCC4)CC3)(C1)C2 (stereo not shown) [Example 477, 4-((3-acetamido-bicyclo[1.1.1]pentan-1-yl)amino)-6-(3-cyano-pyrrolo[1,2-b]pyridazin-7-yl)-N-((1r,4r)-4-(morpholine-4-carbonyl)cyclohexyl) nicotinamide] | 98 nM |  |  | 1 nM | 
22 | CNC(=O)c1ccc(Nc2cc(-c3ccc4cc(C#N)cnn34)ncc2C(=O)NCC#N)cc1 [Example 451, N-(cyanomethyl)-6-(3-cyanopyrrolo[1,2-b]pyridazin-7-yl)-4-((4-(methylcarbamoyl)phenyl)amino) nicotinamide] | 30 nM |  |  | < 1 nM | 
23 | CC(C)(O)[C@H](F)CNC(=O)c1cnc(-c2ccc3cc(C#N)cnn23)cc1Nc1ccc(N2CCS(=O)(=O)CC2)cc1 [Example 688, (R)-6-(3-cyanopyrrolo[1,2-b]pyridazin-7-yl)-4-((4-(1,1-dioxidothiomorpholino)phenyl)amino)-N-(2-fluoro-3-hydroxy-3-methylbutyl) nicotinamide] | 24 nM |  |  | < 1 nM | 
24 | NC(=O)c1cnn2c(-c3cc(NC45CCC(O)(CC4)CC5)c(C(=O)NCC(F)(F)C(=O)N4CC(F)(F)C4)cn3)ccc2c1 [Example 963, 7-(5-((3-(3,3-difluoro-azetidin-1-yl)-2,2-difluoro-3-oxopropyl)carbamoyl)-4-((4-hydroxybicyclo[2.2.2]octan-1-yl)amino)pyridin-2-yl)pyrrolo[1,2-b]pyridazine-3-carboxamide] |  | 394 nM | > 10000 nM |  | 
25 | CC(C)Nc1cc(-c2ccc3cc(C#N)cnn23)ncc1C(=O)NCCC(C)(N)C(F)F (stereo not shown) [Example 555, N-(3-amino-4,4-difluoro-3-methylbutyl)-6-(3-cyano-pyrrolo[1,2-b]pyridazin-7-yl)-4-(isopropylamino) nicotinamide] | 95 nM |  |  | 1 nM | 
26 | CNC(=O)c1ccc(Nc2cc(-c3ccc4cc(C#N)cnn34)ncc2C(=O)NC[C@@H](F)C(C)(C)O)cn1 [Example 579, (R)-5-((2-(3-cyano-pyrrolo[1,2-b]pyridazin-7-yl)-5-((2-fluoro-3-hydroxy-3-methylbutyl)carbamoyl)pyridin-4-yl)amino)-N-methylpicolinamide] | 75 nM |  |  | < 1 nM | 
